Values after ≈ are worked out from the molar mass of the structure shown. “Also recorded” adds a separate entry of the source. Read-outs that look alike come from different tables or passages of the source.
Experiments:
[1] = test system: Mtb H37Rv; test: microbe, parasite or virus in culture; format: cell-based; settings: Mycobacterium tuberculosis, read-out: MIC BDQ values in six carbon sources
[2] = test system: Mtb Rv0678 RAVs; set-up: method as in Sonnenkalb et al., 2023; Villellas et al., 2017; settings: Rv0678 RAVs in baseline isolates of MDR-TB patients; ref Sonnenkalb et al., 2023; Villellas et al., 2017; cited from earlier work
[3] = test system: M. tuberculosis; set-up: method as in Lounis et al. (2016); settings: polypropylene plates in comparison with polystyrene; ref Lounis et al. (2016); cited from earlier work
[4] = Effect of tyloxapol on TBAJ-587 recovery in ST broth without bacteria; format: physicochemical; settings: ST broth with vs without tyloxapol, no bacteria, polystyrene flasks, 28 days
Method: A low (0.16 mg/L) and a high concentration (1.6 mg/L) were tested and samples taken and quantified at 0, 1, 10 and 28 days after compound addition. Parallel conditions with propranolol (2 μM and 0.2 μm) were included as a drug control; two time-points were sampled for quantification at days 0 and 28 after compound addition. All 648 samples were measured in technical duplicates and verapamil was used as internal standard.

[5] = test system: regrowth TKA isolates (Mtb H37Rv); test: microbe, parasite or virus in culture; format: cell-based, Mycobacterium tuberculosis; settings: for MIC: Mycobacterium tuberculosis
[6] = test system: Mtb H37Rv; test: Dose response time kill assays (TKA), CFU enumeration; format: cell-based, Mycobacterium tuberculosis
[7] = concentrations equal or higher than 5x MIC

SMILES	MIC [1] [µg/mL]	increase in MIC [2]	increase in the MIC [3] [fold]	effect of 0.05% tyloxapol on recovery [4]	MIC increase compared to the wild-type baseline [5] [fold]	MIC ([5]; H37RV) [µg/mL]	MIC ([5]; read-out: MIC values for TBAJ-587, all regrowth isolates) [µg/mL]	effect in TKA ([6]; 1x MIC and 2x MIC)	bacterial regrowth ([6]; 1x MIC and 2x MIC, day 28)	bacterial regrowth after 28 days of treatment [6, 7]	time to cleared cultures (bacterial counts under the limit of quantification) [6, 7] [days]	effect in TKA ([6]; concentrations equal to and above 5x MIC)
COc1nc2ccc(Br)cc2cc1[C@@H](c1ccccc1)[C@@](O)(CCN(C)C)c1cccc2ccccc12 [BDQ, bedaquiline]	0.063 to 0.25 (≈ 0.113 to 0.45 µM)	2–8 fold	4	–	–	–	–	–	–	–	–	–
CC(C)NCC(O)COc1cccc2ccccc12 (stereo not shown) [Propranolol, propranolol, reference compound]	–	–	–	did not affect its recovery	–	–	–	–	–	–	–	–
COc1cc([C@](O)(CCN(C)C)[C@@H](c2cc3cc(Br)ccc3nc2OC)c2cccc(OC)c2F)cc(OC)n1 [TBAJ-587]	–	–	–	higher TBAJ-587 recovery	4	0.125 (≈ 0.203 µM)	0.125 to 0.25 (≈ 0.203 to 0.407 µM)	bacteriostatic effect	resumed growth after 28 days; also recorded: bacterial regrowth by day 28	without bacterial regrowth	≤ 7	bactericidal effect

— paper PMC13357423 (Frontiers in Microbiology, 2026)
